Assay results as given in patent US6492417B1, “11-deoxy-16-fluoro-PGF2α analogs as FP receptor antagonists” (Alcon Manufacturing, Ltd., priority 1997, dated 2002).
Blank lines part the entries; values can stand above or below the compound they belong to.

Tests used:
FP receptor [1] = target: T1, FP receptor (Rattus norvegicus, UniProt P43118); experiment: Agonist stimulation of [3H]IPs production in A7r5 cells; type: cell-based
T1 construct: Two cell lines containing the FP receptor; host or cells: A7r5 rat thoracic aorta smooth muscle cells
Experimental: (§1) Confluent monolayer cultures of cells (in a standard 24-well tissue culture plate) expressing the FP receptor are exposed to [^3H]-myo-inositol (1.5 μCi in a volume of 0.5 ml DMEM culture medium supplemented with 2 mM L-glutamine and 10 μg/ml gentamicin sulfate) in the absence of serum, which causes net incorporation of the radioisotope into the phosphotidylinositol membrane lipids. After 24-32 hrs, the medium with the radioisotope is removed and the cells are rinsed once with DMEM/F-12 medium containing 10 mM LiCl (assay medium). Then 0.5 ml of assay medium is added to each well of cells, followed by addition of varying concentrations of an FP receptor agonist (or other test compound). Cells are exposed to the test agent for 30-120 min in a humidified incubator (95% air/5% CO2), maintained at 37° C. […] The presence of LiCl during the agonist stimulation period inhibits phosphatases and permits the accumulation of radiolabelled inositol phosphates (IPs) which is measured by ion exchange chromatography.
(§2) The agonist-dependent production of IPs, which reflects the degree of receptor activation, is quantitatively measured for each well of cells in the 24-well plate by separating the negatively charged radiolabelled IPs from other minor radiolabelled species and free [^3H]-myo-inositol by anion exchange chromatography. […]

FP receptor [2] = experiment: Schild analysis: antagonism of agonist-stimulated [3H]IPs production, data from 3T3 and A7r5 cells; type: cell-based, mouse and rat; settings: n=9 experiments using 3T3 and A7r5 cells; read-out: Kb (antagonist potency by Schild analysis)
Experimental: as §1, §2

FP receptor [3] = target: T1, FP receptor; experiment: Schild analysis: antagonism of fluprostenol-induced [3H]IPs production in A7r5 cells (fixed antagonist, varied agonist); type: cell-based; settings: for Kb / Kb (potency as antagonist of the FP receptor): Schild analysis; for Kb: read-out: Kb (potency as antagonist of the FP receptor)
Experimental: Confluent monolayer cultures of cells (in a standard 24-well tissue culture plate) expressing the FP receptor are exposed to [^3H]-myo-inositol (1.5 μCi in a volume of 0.5 ml DMEM culture medium supplemented with 2 mM L-glutamine and 10 μg/ml gentamicin sulfate) in the absence of serum, which causes net incorporation of the radioisotope into the phosphotidylinositol membrane lipids. After 24-32 hrs, the medium with the radioisotope is removed and the cells are rinsed once with DMEM/F-12 medium containing 10 mM LiCl (assay medium). Then 0.5 ml of assay medium is added to each well of cells, followed by addition of varying concentrations of an FP receptor agonist (or other test compound). Cells are exposed to the test agent for 30-120 min in a humidified incubator (95% air/5% CO2), maintained at 37° C. Then the assay medium is removed and 1 ml of 0.1 M formic acid is added to the cell monolayer to inactivate the phospholipase C and to the radiolabelled products into the assay medium. The presence of LiCl during the agonist stimulation period inhibits phosphatases and permits the accumulation of radiolabelled inositol phosphates (IPs) which is measured by ion exchange chromatography.
The agonist-dependent production of IPs, which reflects the degree of receptor activation, is quantitatively measured for each well of cells in the 24-well plate by separating the negatively charged radiolabelled IPs from other minor radiolabelled species and free [^3H]-myo-inositol by anion exchange chromatography. This is accomplished by adding 0.9 ml of the cell lysate obtained as described above to a column packed with 1 ml of AG 1-X8 anion exchange resin in the formate form. The elution and separation of the radiolabelled IPs from the column consists of sequential additions to the column of: 1) 10 ml of water; 2) 8 ml of 50 mM ammonium formate; and 3) 4 ml of 1.2 M ammonium formate solution containing 0.1 M formic acid. The first two washes are discarded, and the third is collected in a scintillation vial, to which is added 15 ml of a water-accepting scintillation fluid. These samples, i.e., the radiolabelled IPs formed by the cells in response to stimulation by an FP prostaglandin receptor agonist or other test agent, is then measured by scintillation spectrometry on a beta-counter.
The dependence of the level of the [^3H]IPs production on agonist concentration is analyzed by standard pharmacological methods to determine the potency (EC50 value) and efficacy (maximum response; Emax) of the FP receptor agonist relative to a standard FP receptor agonist such as fluprostenol. […] The agonist stimulation is then continued for the standard time (30-120 min), after which the procedure for quenching the reaction, separating the [^3H]IPs, and anion exchange chromatography is identical to the procedure described above. A compound is considered to be an antagonist in this protocol if it inhibits the agonist-stimulated [^3H]IPs production relative to the production measured in the control experiment (performed in parallel), in which the solvent is substituted for the antagonist.
Two different antagonist protocols are employed: 1) the antagonist concentration is varied while holding the agonist concentration fixed at a concentration approximately 10 times the agonist EC50 value and 2) the antagonist concentration is fixed in a given experiment, with the agonist concentration varied, and several such experiments, each with a different, fixed antagonist concentration, are performed. […] Overall, the Ki and Kb values are synonymous and represent the antagonist potency of the antagonist at equilibrium.

[4] = target: FP prostaglandin receptor (Homo sapiens, UniProt P43088); experiment: Selectivity for FP prostaglandin receptor compared to other classes of prostaglandin receptors
FP receptor [5] = target: T1, FP receptor; experiment: Concentration-dependent inhibition of fluprostenol-stimulated [3H]IPs production in A7r5 cells (varied antagonist, fixed agonist); type: cell-based; settings: fluprostenol fixed at approximately 10 times its EC50, n=3, read-out: Ki (antagonist potency by method of FIG. 2)
Experimental: as §1, §2

T1 sequence (P43118 whole entry): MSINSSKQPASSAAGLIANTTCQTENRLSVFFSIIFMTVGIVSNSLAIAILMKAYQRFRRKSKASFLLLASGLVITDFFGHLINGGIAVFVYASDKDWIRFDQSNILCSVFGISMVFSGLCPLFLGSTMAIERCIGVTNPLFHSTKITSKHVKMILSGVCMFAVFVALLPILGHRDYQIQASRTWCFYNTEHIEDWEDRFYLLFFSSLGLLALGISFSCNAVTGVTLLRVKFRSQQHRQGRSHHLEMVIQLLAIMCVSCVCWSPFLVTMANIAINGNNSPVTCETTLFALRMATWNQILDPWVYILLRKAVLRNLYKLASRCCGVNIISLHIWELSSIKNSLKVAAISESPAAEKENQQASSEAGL
Chain of FP prostaglandin receptor (P43088 whole entry): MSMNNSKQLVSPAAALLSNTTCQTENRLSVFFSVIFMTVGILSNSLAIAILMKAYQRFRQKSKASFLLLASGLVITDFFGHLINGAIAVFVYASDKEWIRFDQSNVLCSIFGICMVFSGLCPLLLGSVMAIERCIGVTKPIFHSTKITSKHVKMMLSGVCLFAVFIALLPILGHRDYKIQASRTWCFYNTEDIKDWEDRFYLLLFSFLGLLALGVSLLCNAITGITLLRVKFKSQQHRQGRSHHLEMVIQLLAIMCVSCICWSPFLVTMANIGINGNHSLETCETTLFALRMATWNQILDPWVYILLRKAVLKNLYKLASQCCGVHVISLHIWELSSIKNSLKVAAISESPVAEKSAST

Compound: CCCCC[C@H](O)/C=C/[C@@H]1[C@@H](C/C=C\CCCC(=O)N(C)C)[C@@H](O)C[C@H]1O [PGF2α dimethyl amide]
Kb (potency as antagonist of the FP receptor) (FP receptor [3]; A7r5 cells): Inactive

Compound: CCCCC[C@H](O)/C=C/[C@@H]1[C@@H](C/C=C\CCCCN(C)C)[C@@H](O)C[C@H]1O [PGF2α dimethyl amine]
Kb (potency as antagonist of the FP receptor) (FP receptor [3]; A7r5 cells): Inactive

Compound: CCCCNC(=O)NS(=O)(=O)c1ccc(C)cc1 [Tolbutamide]
Kb (potency as antagonist of the FP receptor) (FP receptor [3]; A7r5 cells): Inactive | Kb (potency as antagonist of the FP receptor) (FP receptor [3]; A7r5 cells, listed as tolbutamide): inactive

Now from value to compound, other results behind:

Agonist classification (maximum effect relative to fluprostenol) (FP receptor [1]): full agonist
Compound: O=C(O)CCC/C=C\C[C@@H]1[C@@H](/C=C/[C@@H](O)COc2cccc(C(F)(F)F)c2)[C@H](O)C[C@@H]1O (racemic) [fluprostenol]

Kb (FP receptor [3]; A7r5 cells): 132 nM | Type of antagonism (shift of fluprostenol dose-response curves) (FP receptor [3]; A7r5 cells, maximal effects of fluprostenol unaltered, potency reduced): competitive antagonist | Fold higher potency as FP receptor antagonist than phloretin (FP receptor [3]; from Table 1 Kb values): greater than 39 fold | Selectivity for the FP prostaglandin receptor compared to other classes of prostaglandin receptors [4]: relatively good selectivity | Ki (FP receptor [5]): 324 ± 49 nM | Agonist classification (maximum effect relative to fluprostenol) (FP receptor [1]): partial agonist
Compound: CCCCC(F)[C@H](O)/C=C/[C@H]1CC[C@H](O)[C@@H]1C/C=C\CCCC(=O)O (some centres unmarked) [Compound II]
Kb (FP receptor [2]): 132 ± 22 nM

Kb (FP receptor [3]; A7r5 cells): 160000 nM
Compound: COc1ccc(Cl)cc1C(=O)NCCc1ccc(S(=O)(=O)NC(=O)NC2CCCCC2)cc1 [Glibenclamide]

Kb (FP receptor [3]; A7r5 cells): 5200 nM
Compound: O=C(CCc1ccc(O)cc1)c1c(O)cc(O)cc1O [Phloretin]
